According to ChEMBL document CHEMBL1201862, “PubChem BioAssay data set” (2004):
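1) Cells in 96-well plates. 2) Compound, 48 h, 5 concentrations. 3) Linear interpolation between surrounding doses. 4) Unreached endpoint = highest concentration. At the GI50, growth is halved.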 The source made the active and inactive calls. Rule as the data show it: active = GI50 up to about 1.1 µM and inactive = higher.

Legend:
Experiment in all cases: NCI anticancer screen, dose series, 48 h
786-0 = system: 786-0
CAKI-1 = system: CAKI-1
HCT-116 = system: HCT-116
HL-60 = system: HL-60
HT-29 = system: HT-29
KM12 = system: KM12
Malme-3M = system: Malme-3M
OVCAR-3 = system: OVCAR-3
OVCAR-5 = system: OVCAR-5
RPMI-8226 = system: RPMI-8226
RXF 393 = system: RXF 393
SF-539 = system: SF-539
SK-MEL-28 = system: SK-MEL-28
SN12C = system: SN12C
SNB-75 = system: SNB-75
TK-10 = system: TK-10
UACC-257 = system: UACC-257
UACC-62 = system: UACC-62
UO-31 = system: UO-31
NCI-H460 = system: NCI-H460

Compound	GI50 (786-0)	GI50 (CAKI-1)	GI50 (HCT-116)	GI50 (HL-60)	GI50 (HT-29)	GI50 (KM12)	GI50 (Malme-3M)	GI50 (OVCAR-3)	GI50 (OVCAR-5)	GI50 (RPMI-8226)	GI50 (RXF 393)	GI50 (SF-539)	GI50 (SK-MEL-28)	GI50 (SN12C)	GI50 (SNB-75)	GI50 (TK-10)	GI50 (UACC-257)	GI50 (UACC-62)	GI50 (UO-31)	GI50 (NCI-H460)
CN1CN(c2ccccc2)C2(CCN(CCCC(=O)c3cccs3)CC2)C1=O	35.6 µM (inactive)	33.1 µM (inactive)	30.1 µM (inactive)	52.8 µM (inactive)	21.2 µM (inactive)	75.7 µM (inactive)	54.1 µM (inactive)	37.2 µM (inactive)	35.9 µM (inactive)	29.8 µM (inactive)	> 100 µM (inactive)	23.8 µM (inactive)	> 100 µM (inactive)	48.4 µM (inactive)	> 100 µM (inactive)	27.7 µM (inactive)	29 µM (inactive)	> 100 µM (inactive)	33 µM (inactive)	
C(=C\Nc1ccc(Oc2ccccc2)cc1)/C=N/c1ccc(Oc2ccccc2)cc1	16.6 µM (inactive)	18.7 µM (inactive)	17.4 µM (inactive)	23.7 µM (inactive)	15.9 µM (inactive)	16.4 µM (inactive)	17.1 µM (inactive)	19 µM (inactive)	25 µM (inactive)	21.8 µM (inactive)	20 µM (inactive)	16.4 µM (inactive)	16.6 µM (inactive)	14.8 µM (inactive)	17.2 µM (inactive)	18.7 µM (inactive)	17.1 µM (inactive)		18.4 µM (inactive)	16.7 µM (inactive)
CCOC(=O)C(NC(=O)N(C1=NCC(C)S1)C1CCCCC1)(OC)C(F)(F)F (stereo not drawn)	15.5 µM (inactive)	34.6 µM (inactive)	31.6 µM (inactive)	30.2 µM (inactive)	20.7 µM (inactive)	33 µM (inactive)	45.8 µM (inactive)	24.3 µM (inactive)	> 100 µM (inactive)		17.9 µM (inactive)	32.3 µM (inactive)	47.2 µM (inactive)	15.1 µM (inactive)	31 µM (inactive)	57.5 µM (inactive)	56.5 µM (inactive)	32.8 µM (inactive)	52 µM (inactive)	35.4 µM (inactive)
CC1(c2nc3ccccc3[nH]2)CCC(C#N)C(C)(C)O1 (stereo not drawn)	> 100 µM (inactive)	> 100 µM (inactive)	> 100 µM (inactive)	> 100 µM (inactive)	> 100 µM (inactive)	7.74 µM (inactive)	> 100 µM (inactive)	> 100 µM (inactive)	> 100 µM (inactive)	> 100 µM (inactive)	> 100 µM (inactive)	> 100 µM (inactive)	> 100 µM (inactive)	> 100 µM (inactive)	> 100 µM (inactive)	> 100 µM (inactive)	> 100 µM (inactive)	> 100 µM (inactive)	36 µM (inactive)	
COC(=O)c1cc2c(s1)C(=O)c1ccccc1-2	> 100 µM (inactive)	> 100 µM (inactive)	> 100 µM (inactive)	> 100 µM (inactive)	> 10 µM (inactive)	> 100 µM (inactive)	> 100 µM (inactive)	> 100 µM (inactive)	> 100 µM (inactive)		> 100 µM (inactive)	> 100 µM (inactive)	> 100 µM (inactive)	> 100 µM (inactive)	> 100 µM (inactive)	> 100 µM (inactive)	> 100 µM (inactive)	> 100 µM (inactive)	> 100 µM (inactive)	> 100 µM (inactive)
CS(=O)(=O)c1n[nH]c2nc(O)nc(O)c12	> 10 µM (inactive)	> 10 µM (inactive)	> 10 µM (inactive)	> 10 µM (inactive)	> 10 µM (inactive)	> 10 µM (inactive)	> 10 µM (inactive)	> 10 µM (inactive)	> 10 µM (inactive)		> 10 µM (inactive)	> 10 µM (inactive)	> 10 µM (inactive)	> 10 µM (inactive)	> 10 µM (inactive)	> 10 µM (inactive)	> 10 µM (inactive)	> 10 µM (inactive)		> 10 µM (inactive)
COC(=O)c1ccc(NC(=O)c2cc(OC)c(OC)c(OC)c2)cc1	0.859 µM (active)	2.16 µM (inactive)	0.948 µM (active)	2.09 µM (inactive)	1.35 µM (inactive)	1.02 µM (active)	0.644 µM (active)	1.08 µM (active)			39.4 µM (inactive)	1.21 µM (inactive)	0.798 µM (active)	1.85 µM (inactive)	42.1 µM (inactive)	2.34 µM (inactive)	0.0215 µM (active)	1.09 µM (active)	2.05 µM (inactive)	2.23 µM (inactive)
S=C(S)N1CCN(c2ccccc2)CC1	45.1 µM (inactive)	> 100 µM (inactive)	34.5 µM (inactive)	9.31 µM (inactive)	> 100 µM (inactive)	> 100 µM (inactive)	> 100 µM (inactive)	> 100 µM (inactive)	> 100 µM (inactive)	27.5 µM (inactive)	> 100 µM (inactive)	> 100 µM (inactive)	45.9 µM (inactive)	> 100 µM (inactive)	> 100 µM (inactive)	> 100 µM (inactive)	> 100 µM (inactive)			
